For assay [1], the system named is HEK293. Put plainly: IC50 for inhibition of ZIKV NS1 production. How it is done:
(§1)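 HEK293 cells in 1536-well plates were pre-treated with compound for 1 h, infected with ZIKV (MOI 1) for 24 h, and NS1 antigen (intra- plus extracellular) was measured by TR-FRET. Confirmation used 11-point 1:3 dilutions, and IC50 and maximal inhibition were fitted in GraphPad Prism.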

Assay [2] has as its system HEK293. Briefly: cytotoxicity IC50 (ATP content, uninfected cells); higher = less cytotoxic. The settings on record: infection: none.
The subject of assay [3] is HEK293. Briefly: maximal inhibition of ZIKV NS1 production (% inhibition); higher = stronger antiviral effect. How it is done:
as §1

Structures are written as SMILES. Where only a bound is given, the exact number is not on record here.

Regarding `CC(C)c1ccc(Cn2ccc3c4c(N)nc(NC5CC5)nc4ccc32)cc1`, in the assay on HEK293 [1], the IC50 amounted to 3 µM. Also, the “cytotoxicity IC50” value with HEK293 [2] came to 78 µM. In the assay on HEK293 [3], this molecule registered a maximal inhibition of 106.
Consider `O=C(Nc1ccncc1)C(=O)c1cn(Cc2ccc(Cl)cc2)c2ccccc12`, for which the half-maximal inhibitory concentration (IC50) in the assay on HEK293 [1] worked out at 1.3 µM. For the same molecule, in the assay on HEK293 [2], the “cytotoxicity IC50” value was determined as 70 µM. In addition, the maximal inhibition with HEK293 [3] was determined as 39.
In the case of `C=CC(=O)N1CCc2ccc(-n3c(=O)ccc4cnc5ccc(-c6cnn(C)c6)cc5c43)cc21`, the IC50 in the assay on HEK293 [1] is 13 µM. Besides, the “cytotoxicity IC50” value in the assay on HEK293 [2] is above 100 µM. Further, the maximal inhibition in the assay on HEK293 [3] was 105.
In the same order, the values of `COc1ccc(OC)c(-c2nnc3ccc(-c4ccc(OC)c(O[C@@H]5CCOC5)c4)nn23)c1` are 40 µM, above 100 µM and 42.
With `O=C1/C(=C/c2ccccc2)C[C@@]2(O)[C@H]3Cc4ccc(O)c5c4[C@@]2(CCN3CC2CC2)[C@H]1O5`, in the assay with HEK293 [1], the IC50 was found to be 7.2 µM. The “cytotoxicity IC50” value in the assay with HEK293 [2] worked out at 2.4 µM. In addition, the maximal inhibition in the assay with HEK293 [3] came out at 106.
On to `C[C@@H]1O[C@@H](O[C@H]2C[C@@H](O)[C@]3(CO)[C@H]4[C@H](O)C[C@]5(C)[C@@H]([C@@H]6COC(=O)C6)CC[C@]5(O)[C@@H]4CC[C@]3(O)C2)[C@H](O)[C@H](O)[C@H]1O`, for which the IC50 with HEK293 [1] was determined as 1.5 µM. Also, in the assay with HEK293 [2], the “cytotoxicity IC50” value is 0.85 µM. The same molecule registered a maximal inhibition in the assay with HEK293 [3] of 103.
Consider `Oc1cccc(-c2nc(N3CCOCC3)c3oc4ncccc4c3n2)c1`, for which, in the assay on HEK293 [1], the IC50 was 1.6 µM. The “cytotoxicity IC50” value in the assay on HEK293 [2] was 0.94 µM. The maximal inhibition in the assay with HEK293 [3] was 92.
On to `OC(c1cc(C(F)(F)F)nc2c(C(F)(F)F)cccc12)C1CCCCN1` (centres undefined), for which the IC50 in the assay on HEK293 [1] turned out to be 18 µM. In addition, the “cytotoxicity IC50” value with HEK293 [2] was above 100 µM. In the assay with HEK293 [3], the maximal inhibition was determined as 97.
As for `CN(C)CCN(C)C(=O)c1ccc(NC(=O)Nc2ccc(-c3nc(N4CCOCC4)c4ccn(CC(F)(F)F)c4n3)cc2)cc1`, in the assay with HEK293 [1], the IC50 was 2.9 µM. In addition, in the assay with HEK293 [2], the “cytotoxicity IC50” value was found to be 3.4 µM. Moreover, the maximal inhibition with HEK293 [3] was 76.
In the case of `Cn1c(=O)n(-c2ccc(C(C)(C)C#N)cc2)c2c3cc(-c4cnc5ccccc5c4)ccc3ncc21`, the IC50 in the assay with HEK293 [1] was determined as 3.2 µM. Moreover, the “cytotoxicity IC50” value in the assay on HEK293 [2] came to 0.53 µM. Also, the maximal inhibition in the assay with HEK293 [3] worked out at 82.
As for `C=C1C(=O)O[C@H]2[C@H]1CC/C(C)=C/CC[C@@]1(C)O[C@@H]21`, in the assay with HEK293 [1], the half-inhibitory concentration (IC50) was 43 µM. Also, the “cytotoxicity IC50” value in the assay on HEK293 [2] is 20 µM. The molecule further displayed a maximal inhibition in the assay on HEK293 [3] of 106.
Take `CS[C@H]1SC[C@H]2C(=O)N(C)[C@@H](C(C)C)C(=O)OC[C@@H](NC(=O)c3cnc4ccccc4n3)C(=O)N[C@@H](C)C(=O)N(C)[C@@H]1C(=O)N(C)[C@@H](C(C)C)C(=O)OC[C@@H](NC(=O)c1cnc3ccccc3n1)C(=O)N[C@@H](C)C(=O)N2C`: the IC50 with HEK293 [1] amounted to 0.017 µM. Besides, the “cytotoxicity IC50” value with HEK293 [2] was above 100 µM. The maximal inhibition in the assay on HEK293 [3] was determined as 98.
The molecule `Nc1ncn([C@@H]2O[C@H](CO)[C@@H](O)[C@H]2O)c(=O)n1` registered an IC50 in the assay with HEK293 [1] of 44 µM. Also, the “cytotoxicity IC50” value in the assay on HEK293 [2] is above 100 µM. In the assay with HEK293 [3], the maximal inhibition is 58.
Regarding `COc1cc2nc(N3CCN(C(=O)c4ccco4)CC3)nc(N)c2cc1OC`, the concentration for half-maximal inhibition (IC50) in the assay with HEK293 [1] worked out at 18 µM. The “cytotoxicity IC50” value in the assay on HEK293 [2] was determined as 40 µM. Further, the maximal inhibition in the assay on HEK293 [3] worked out at 104.
As for `CCC[C@H](Nc1nc(-c2ccc(NC(=O)NCC)c(OC)c2)ncc1C)c1cccnc1`, the IC50 in the assay with HEK293 [1] came out at 0.17 µM. In addition, the “cytotoxicity IC50” value in the assay with HEK293 [2] was above 100 µM. The molecule also had a maximal inhibition with HEK293 [3] of 72.
In the assay with HEK293 [1], `CCc1nc(N)nc(N)c1-c1ccc(Cl)cc1` yielded an IC50 of 45 µM. Besides, in the assay on HEK293 [2], the “cytotoxicity IC50” value is 14 µM. This molecule also registered a maximal inhibition in the assay with HEK293 [3] of 88.
In the same order, the values of `Cc1cnc(NC(=O)Nc2cc(Br)c(C)cc2OC[C@@H]2CNCCO2)cn1` are 1.7 µM, above 100 µM and 101.
`C[C@H]1CCC/C=C/[C@@H]2C[C@H](O)C[C@H]2[C@H](O)/C=C/C(=O)O1` had an IC50 in the assay on HEK293 [1] of 0.43 µM. Further, the “cytotoxicity IC50” value in the assay on HEK293 [2] is above 100 µM. Further, in the assay with HEK293 [3], the maximal inhibition is 99.

As usually defined, the IC50 is the concentration that inhibits the measured activity by half.

Source of the values: the supplement of paper PMC8498969.
